Test results taken from patent US7271158B2, “Treatment of rumen acidosis with α-amylase inhibitors” (Pfizer Inc., priority 2000, dated 2007).

Experiments:
[1] = system: rumen fluid fermentation (RUSITEC chronic acidosis model); assay: RUSITEC rumen simulation, chronic acidosis model: acarbose; format: cell-based, Guernsey cow; details: for increase in butyrate production: between control and treatment periods (0 mg/vessel/d: 24%); for change in VFA production: treatment period vs preceding control period (0 mg/vessel/d: −3%)
Description: Evaluation of Agents Using the Rumen Simulation Technique ([…]) to Model Chronic Acidosis. The in vitro rumen simulation technique ([…]), first described by Czerkawski and Breckenridge (1977) was used to evaluate the effect of the bacterial α-amylase and/or α-glucosidase inhibitor acarbose on daily pH profiles and VFA production using a commercial cattle concentrate ration (GH313-see later). […] Equipment: The apparatus consisted of two […] units each containing four-fermentation vessels. […] The feed was placed in a nylon bag (14×9 cm, 50 μm), and was gently agitated using a piston mechanism (8 strokes/min). Buffer (McDougall, 1948) was continuously infused at a rate of approximately 750 ml/day by an eight channel peristaltic pump (Watson Marlow). The effluent was collected in 1 liter glass bottles containing 20 ml of oxalic acid solution (12 g/100 ml in deionised water). This was added to inhibit further microbial activity Feed: Each vessel was fed daily with a bag containing 30 g of the commercial pelleted ration GH313 (89% dry matter) and 2.5 g barley straw (90% dry matter) chopped into 1-2 cm lengths. 7 g of corn starch (Sigma Cal. No. S4126) was added to the liquid phase of all fermenter vessels at feeding on the last four days of the experiment to simulate acute acidosis. Rumen fluid donor: Rumen fluid was collected from a five year old dry Guernsey cow. […] Rumen contents were collected via a rumen fistula (Bar Diamond Inc. P.O. Box. 60. Bar Diamond Lane. Parma. Id. 83660-0060. U.S.A) Vessel inoculation: Rumen contents were taken from the fistulated donor animal at 08:00 h (before the morning feed). The material was carried to the laboratory in pre-warmed insulated flasks, and then strained through four layers of cotton gauze into another pre-warmed insulated flask. 70 g of the solid residue were weighed into each of eight nylon bags. One bag containing rumen solids, and one bag containing fresh feed was placed in the feed chamber for each vessel. The liquid contents of each vessel were 100 ml deionised water, 200 ml of buffer artificial and 500 ml of rumen fluid. After assembling and sealing the vessels, they were placed in the water baths and the piston rod attached to the drive bar. The effluent tubes were placed in the collection flasks. The head space in each vessel was flushed with CO2 for 2 min., then the piston drive motor and buffer infusion pump were started. Daily maintenance and sampling procedure: These procedures were carried out at the same time each day. Eight feed bags were prepared, and a 1 l dispenser bottle containing infusion buffer warmed to 39° C. Treatment with acarbose: Acarbose was obtained as GlucobayTM tablets (Bayer, AAH Pharmaceuticals) Each tablet contains 100 mg acarbose. Duplicate vessels were treated with 0, 1, 10 and 100 mg/d of acarbose by adding 1 tablet to each of two feed bags to give 100 mg/vessel/d. The lower doses were prepared by dissolving/suspending a tablet in 10 ml buffer (giving a 10 mg/ml solution of acarbose). One ml of this solution was then added to 9 ml of buffer, giving a 1 mg/ml solution. One ml of each solution was then added to the contents of two feed bags, to give 10 and 1 mg/vessel/d. Finally, the acarbose was dried on to the feed by leaving the bags at room temperature overnight. Analyses: Dry matter losses from the nylon bags after 48 hours incubation were measured by drying the washed bag contents in an oven for 23 h at 65° C. Effluent samples (10 ml) were taken daily and stored at -20° C. for subsequent VFA and lactate analysis .pH was automatically recorded at 17 min. intervals using equipment supplied by Philip Harris Education. A combination electrode was fitted in each vessel via a gas-tight port in the lid. […] The recorded pH values were downloaded to a PC running […] 32 software (Philip Harris Education) and then transferred to a spreadsheet for further analysis. […]

[2] = system: chronic rumen acidosis induced in fistulated cattle; assay: In vivo testing in fistulated cattle (induced chronic rumen acidosis); set-up: species or system Hereford×Friesian steers; details: 4.0 g/trt through fistula
Description: In Vivo Testing in Fistulated Cattle Objective: To determine the effect of the agent for testing, in this case acarbose, on chronic rumen acidosis induced in fistulated cattle. A rumen pH profile representative of chronic acidosis was induced by stepwise increase in the level of concentrate feeding of a specified diet and a reduction in the roughage offered. This was followed by treatment of each animal with acarbose, administered via a permanent rumen fistula, to assess its ability to normalise rumen pH. Experimental Animals: Six fistulated Hereford×Friesian steers, weighing 170-230 kgs (supplied by […] Calves Ltd. […], Ceredigion) Treatment: Glucobay® 100. Acarbose 100 mgs per tablet. Management: The cattle were fed GH651 cattle high cereal beef pellets (variable amount) with barley straw (variable amount) divided over two equal feeds, given at around 08.00 hr and 14.30 hr each day. Precise feeding times were recorded. Water was available ad-lib. Cattle were individually housed in pens (9 square meters per pen) in a building environmentally controlled to 16° C. [table] While chronic acidosis was being induced, manual pH measurements were taken approximately 5 and 8 hours post-morning feed. Rumen fluid samples were taken for VFA and lactate analysis. […] First Sense Recorder). […] Rumen fluid samples (10 ml) were taken twice daily for measurement of VFA levels, molar ratios and lactate levels. These were collected (by manually removing a sample of rumen content with a small stainless […], filtering and transferring to a 10 ml polypropylene vial) just before acarbose was added to the rumen at both dosing times. The pH probes were removed for cleaning and recalibration immediately pre-morning feed. Results: The daily pH curves were used to calculate the period that rumen pH was below pH 5.5, and therefore indicative of chronic acidosis.

S. aureus = assay: Minimum inhibitory concentrations in aerobes (agar dilution)

In the case of `CC1OC(OC2C(CO)OC(OC3C(CO)OC(O)C(O)C3O)C(O)C2O)C(O)C(O)C1NC1C=C(CO)C(O)C(O)C1O` (centres unmarked) [Acarbose, acarbose], the “increase in butyrate production” value ([1]; 1 mg/vessel/d) was 27%, the “change in VFA production” value ([1]; 1 mg/vessel/d) was “+3%” and the “increase in butyrate production” value ([1]; 10 mg/vessel/d) was 76%. For the same compound, the “change in VFA production” value ([1]; 10 mg/vessel/d) was −10%, the “increase in butyrate production” value ([1]; 100 mg/vessel/d) was 134% and the “change in VFA production” value ([1]; 100 mg/vessel/d) was −16%. The “total VFA concentrations in rumen fluid” value ([2]; 13:00 samples, treatment vs control phase) was “little difference”, the “VFA concentration in rumen fluid” value ([2]; 14:00 samples, during the treatment period) was “fell” and the “percentage of propionate in rumen fluid” value ([2]; all sampling times, during the treatment period) was “lower”. For the same compound, the MIC (S. aureus; S. aureus 3.4) was greater than 128 µg/mL, the MIC (S. aureus; S. aureus 3.5) was greater than 128 µg/mL and the MIC (S. aureus; S. aureus 5.1) was greater than 128 µg/mL. It also gave an MIC (S. aureus; S. aureus 6.1) greater than 128 µg/mL, an MIC (S. aureus; S. aureus 8.2) greater than 128 µg/mL and an MIC (S. aureus; S. aureus 8.3) greater than 128 µg/mL. The MIC (S. aureus; S. aureus 9.3) was greater than 128 µg/mL, the MIC (S. aureus; S. aureus 10.3) was greater than 128 µg/mL and the MIC (S. aureus; S. aureus 10.4) was greater than 128 µg/mL. The MIC (S. aureus; Staphylococcus aureus) was greater than 128 µg/mL and the MIC (S. aureus; Staphylococcus aureus, NCTC6571) was greater than 128 µg/mL.
